Data set [1] deals with A549R MCTSs. Nature of the data set: Growth inhibition of drug-treated MCTSs (size by imaging). Particulars: 1.0 and 2.0 μM. In kind it is cell-based, human. An excerpt: Traditional research on the efficacy of cancer drugs is usually performed in two-dimensional (2-D) cell cultures, which may not be a true indicator of the in vivo effectiveness of cancer treatments. This is in part due to the absence of cell-cell or cell-extracellular matrix interactions in 2-D cell models. Therefore, the development of cell culture models that can close the gap between conventional 2-D cell experiments and animal studies is necessary to study the cytotoxicity and anti-proliferative activities of drugs. Multicellular tumor spheroids (MCTSs) are heterogeneous cellular aggregates that have properties of solid tumors, such as nutrient and oxygen gradients, hypoxic/necrotic regions, cell-cell matrix interactions, and gene expression.
MCTSs were cultured using the liquid overlay method. A549R cells in the exponential growth phase were dissociated by a trypsin/EDTA solution to gain single-cell suspensions. A number of 3000 diluted A549R cells were transferred to 1.5% agarose-coated transparent 96-well plates with 200 μL of DMEM containing 10% serum. The single cells formed MCTS aggregates approximately 400 μm in diameter after three days with 5% CO2 and 20% O2 at 37 °C. […]

Data set [2] has as its system A549R MCTSs. Nature of the data set: Cytotoxicity test on 3D MCTSs (Cell TiterGlo ATP). Particulars: A549R MCTSs (~400 μm in diameter), 48 h. It counts as cell-based, human. Here is the method: MCTSs were cultured using the liquid overlay method. A549R cells in the exponential growth phase were dissociated by a trypsin/EDTA solution to gain single-cell suspensions. A number of 3000 diluted A549R cells were transferred to 1.5% agarose-coated transparent 96-well plates with 200 μL of DMEM containing 10% serum. The single cells formed MCTS aggregates approximately 400 μm in diameter after three days with 5% CO2 and 20% O2 at 37 °C. After formation of the MCTSs, each MCTS in a 96-well plate was imaged with a phase contrast microscope (Zeiss Axio Observer D1, Germany) using 10× objective to monitor their color, integrity, diameter, and volume.
A549R MCTSs (diameters ≈400 μm) were treated by carefully replacing 50% of the medium with drug-supplemented standard medium using an eight-channel pipet. In parallel, 50% of the medium containing solvent was replaced with solvent-free medium for the untreated MCTSs. Three A549R MCTSs were treated per condition and drug concentration; the DMSO volume was less than 1% (v/v). The MCTSs were then allowed to incubate for another 48 h. The cytotoxicities of the Ru(II) complexes toward the MCTSs were measured using ATP concentrations with a Cell TiterGlo kit (Promega). After 30 min of incubation, the MCTSs were carefully transferred into black-sided, flat-bottomed 96-well plates (Corning) and mixed with a pipet for luminescence measurements on an Infinite M200 PRO instrument (TECAN).
For orientation: In ATP-based viability assays light output follows the ATP content of the culture.

In another data set the test system is LO2. Put plainly: MTT cytotoxicity assay, normal LO2 cells. In kind it is cell-based. Particulars: LO2 normal human cell line, 48 h. How it is done:
Compounds 1–4 were evaluated against three tumor cell lines derived from different tissues, including the cervix (HeLa), lung (A549) and cisplatin-resistant lung (A549R) tissues. For comparison, the cytotoxicity of cisplatin was also evaluated. As a control, the toxicities of the complexes were also tested against the normal human cell line (LO2).
The human cervix carcinoma cell line (HeLa), the lung carcinoma cell lines (A549 and A549R), and the human hepatocyte cell line (LO2) were obtained from the Experimental Animal Center at Sun Yat-Sen University (Guangzhou, China). The cells were maintained in Dulbecco’s modified Eagle’s medium (DMEM, Gibco BRL) or Roswell Park Memorial Institute 1640 (RPMI 1640, Gibco BRL) medium supplemented with 10% fetal bovine serum (FBS, Gibco BRL), 100 μg/mL streptomycin, and 100 U/mL penicillin (Gibco BRL) in a humidified incubator under 5% CO2 and 20% O2 at 37 °C. To maintain the resistant phenotype, A549R cells were incubated with 5 μM cisplatin and cultured in drug-free medium for at least a week before use.
The cytotoxicity of the ruthenium complexes and cisplatin were determined by an MTT assay. Briefly, cells were seeded into 96-well microtiter plates at 1 × 10^4 cells per well and grown overnight at 37 °C in a 5% CO2 incubator; then, different concentrations of the complexes in cell culture medium were added to the cultures. The plates were then incubated in an incubator for 48 h under the same conditions. The stock MTT dye solution (15 μL, 5 mg/mL) was added to each well. After 4 h of incubation, the cultures were removed and 150 μL of DMSO was added to each well. The optical density of each well was measured on a microplate spectrophotometer at a wavelength of 595 nm.

In data set [3] the test system is A549R cells. Put plainly: AO/EB staining apoptosis assay. Particulars: 0.50–2.0 μM. In kind it is cell-based, human. The text has this:
Cell apoptosis is a naturally occurring, programmed and targeted cellular death mechanism that is very complex and is regulated by some proteins. This process is also greatly affected by extrinsic conditions. Therefore, it is important to study the influence of drug-induced cellular apoptosis. Firstly, the induction of A549R cell apoptosis by complex 4 was investigated by apoptosis assays using AO/EB staining and fluorescence microscopy. […] Necrotic cells are stained in red but have nuclear morphologies that resemble those of viable cells.

Data set [4] concerns A549R cells. Put plainly: Cell uptake study by ICP-MS. In kind it is cell-based, human. Particulars: A549R, 2.0 μM, 12 h. Here is the method:
To understand the high sensitivity of cancer cells to Ru(II) complexes, the extent of cellular uptake was investigated with inductively coupled plasma mass spectrometry (ICP-MS) by treating the HeLa, A549, A549R and LO2 cell lines with 2.0 μM concentrations of the Ru(II) complexes and cisplatin for 12 h. […] In this study, the cellular uptake and lipophilicity were distinctly correlated and followed the order: 4 >3 >2 >1. Complex 4 had the best accumulation, but the amount of Ru in LO2 cells was far less than that in the three cancer lines, indicating selective accumulation and improved efficiency for treating cancer. Cisplatin was taken up more efficiently by the sensitive cell line (A549) than by the cisplatin-resistant cell line (A549R). […] However, less than 1.5% of the cellular platinum was accumulated in the mitochondrial fraction of the A549R cells. Therefore, complex 4 could function in a different manner than cisplatin in A549R cells, which would be an appropriate solution to combat cisplatin resistance in tumor cells.
The cells were plated at a density of 1 × 10^5 cells/mL in 10 mL of DMEM for 24 h at 37 °C under 5% CO2 and 20% O2, Ruthenium complexes (2.0 μM) and cisplatin were added to the culture medium and incubated for 12 h, and mixed with cold PBS and a trypsin-EDTA solution in a centrifuge tube for counting. Then, the nuclei and cytoplasm of the cells were extracted by using a Nuclear and Cytoplasmic Protein Extraction Kit (Life Technologies). The samples were digested in 20% HNO3 and 10% H2O2 at room temperature overnight. Each sample was then diluted with Milli-Q water to obtain 2% HNO3 sample solutions. Ruthenium contents were determined using inductively coupled plasma mass spectrometry (ICP-MS Thermo Elemental Co., Ltd.).

On to Ru(phen)(bzq)(tbtfpip)(PF6) [Complex 4], for which the “change in size of A549R MCTSs” value in the data set on A549R MCTSs [1] is “decreased in size over time”. Further, the IC50 was 1.8 ± 0.3 µM in the data set with A549R MCTSs [2] and 6.7 ± 2.4 µM in the data set on LO2. For the same substance, the AO/EB staining result with A549R cells [3] was “predominantly induced apoptosis”. In addition, the “share of the compound taken up by A549R cells” value in the data set with A549R cells [4] was “Approximately 8%”.

Broadly, the IC50 is the concentration needed to halve the response being measured. Read a high IC50 as weaker potency in that assay.

The record behind these values is publication PMC4725915, “Ruthenium(II) Complexes with 2-Phenylimidazo[4,5-f][1,10]phenanthroline Derivatives that Strongly Combat Cisplatin-Resistant Tumor Cells” (Scientific Reports, 2016).
